Experimental data taken from article PMC12769565, “Design, synthesis and biological activity of glycoconjugated ADAMTS5 exosite inhibitors: applications in osteoarthritis and ovarian cancer models” (Scientific Reports, 2025).

Key:
[1] = tested on: porcine cartilage explants; test: Cell viability MTS assay; format: cell-based, pig; details: 100 µM; 72 h; vs DMSO control
Method: Porcine articular cartilage from the joints of 3–9 month old pigs was supplied by a local abattoir within 2 h of slaughter and dissected into small pieces approximately 3 mm long and 3–4 mm wide. Each piece weighed roughly 10 mg. After dissection, the cartilage was allowed to acclimatize for 24 h at 37 °C under 5% CO2 in Dulbecco’s Modified Eagle Medium (DMEM) containing 100 U/ml penicillin, 100 µg/ml streptomycin, 10% fetal bovine serum (FBS).
(§1) Cell viability was assessed using CellTiter® 96 Aqueous One Solution Cell Proliferation Assay (Promega, G3582) following the manufacturer’s protocol. The assay is based on the reduction of [3-(4,5-dimethylthiazol-2-yl)-5-(3-carboxymethoxyphenyl)-2-(4-sulfophenyl)-2 H-tetrazolium] (MTS) and phenazine ethosulfate into formazan. Compounds 2 and 4b, GM6001 (Merck, 364206) (10–100 µM), or DMSO control were incubated in 48-well Nunc™ plates (Thermo Fisher Scientific,150687) with HEK293T cells, human non-OA chondrocytes, porcine cartilage explants, or human OA cartilage explants for 72 h. At least 3 independent experiments were carried out with 3 technical replicates each. For experiments involving human samples, independent experiments were carried out on 3 different donors. Absorbance at 490 nm was measured on a SpectraMax i3x Multi-Mode Platform (Molecular Devices). Cell viability was normalized to DMSO controls.

[2] = tested on: HEK293T cells; test: Cell viability MTS assay; format: cell-based, human; details: 100 µM; 72 h; vs DMSO control
Method: as §1

CCC(C)N(Cc1cn(CCCO[C@@H]2O[C@H](CO)[C@@H](O[C@@H]3O[C@H](CO)[C@H](O)[C@H](O)[C@H]3O)[C@H](O)[C@H]2NC(C)=O)nn1)S(=O)(=O)c1ccc(-c2ccccc2)cc1 (stereo partly drawn) [compound 2, N-((2R,3R,4R,5 S,6R)-2-(3-(4-((N-(sec-butyl)-[1,1’-biphenyl]-4-sulfonamido)methyl)-1H-1,2,3-triazol-1-yl)propoxy)-4-hydroxy-6-(hydroxymethyl)-5-(((2 S,3R,4 S,5R,6R)-3,4,5-trihydroxy-6-(hydroxymethyl)tetrahydro-2 H-pyran-2-yl)oxy)tetrahydro-2 H-pyran-3-yl)acetamide]
decrease of cell viability [1]: did not exhibit cytotoxicity | inhibition of cell viability [2]: Neither 2, nor the broad-spectrum zinc-chelating metalloproteinase inhibitor GM6001[40] had an effect on cell viability
